Experimental data taken from US20210198629A1, “COMPOSITIONS AND METHODS FOR INCREASING BEIGING OF WHITE ADIPOSE TISSUE” (University of Georgia Research Foundation, Inc., priority 2018, published 2021).

Tests used:
[1] = in vivo; cited from earlier work
[2] = system: AML xenograft model; settings: cited from earlier work
[3] = system: DIO mice; assay: Body weight, adiposity (BIS), food intake, treadmill exhaustion in DIO mice after oral BI-7273; type: in vivo, mouse
Description: Treadmill exhaustion test was performed with an Exer 3/6 treadmill and controller (Columbus Instruments). The treadmill was set up with a uphill inclination of 10%.
Mice were anesthetized with 1% isoflurane and lied flat dorsal side up with limbs perpendicular and tail straight. Four electrodes of ImpediVET were fastened with 28G needles and placed on four points on the midline of the body. Fat-free mass (FFM) and fat mass (FM) were calculated from total body water (TBW) determined by input body weight and complex impedance plotting of 256 frequencies between 4 kHz and 1000 kHz.
Given the above augmentation of whole-body energy expenditure in BI-7273 treated DIO models, whether BI-7273 is sufficient to induce body weight loss and reduce adiposity (anti-obesity effects) was also investigated. DIO models were gavaged with BI-7273 or control 0.5% Natrosol for 14 days as described above and later fed with HFD for one additional month. […] On average, BI-7273 treated DIO mice lost ˜15.5% of body weight at the end of the study (1.5 months after the start of gavage; FIG. 5F). This weight loss rate is higher than the criterium established by the Endocrine Society for effective treatment of obesity (>5% weight loss over three months) (Apovian, C. M., et al., J Clin Endocrinol Metab, 100, 342-362 (2015)).
Using bioimpedance spectroscopy (BIS), the adiposity (fat mass percent) of mice before and after gavage was measured. […] On average, the reduced fat mass (55 grams×21%=11.6 grams) in BI-7273 treated mice was more than the body weight loss at the end of the study (˜9 grams), which indicates a concomitant increase of lean mass in BI-7273 treated DIO mice.

[4] = system: differentiated white adipocytes; assay: RT-qPCR of markers after treating differentiated white adipocytes; type: cell-based, mouse; settings: differentiated white adipocytes treated for 48 hours
Description: To differentiate into adipocytes, white adipose progenitor cells were cultured in growth media to reach 100% confluence for 1 day. The growth media was changed into basal induction medium (DMEM high glucose containing 10% FBS, 0.5 mM isobutylmethylxanthine, […] indomethacin, 2 μg/mL dexamethasone, 850 nM insulin, 1% penicillin/streptomycin). After 2-day induction, the media was changed to basal differentiation medium (DMEM high glucose containing 10% FBS, 850 nM insulin, 1% penicillin/streptomycin) and further incubated for 4-5 days. To differentiate beige adipocytes, fully confluent white adipose progenitor cells were incubated with the above induction medium supplemented with […] rosiglitazone and 1 nM T3 for 2 days and further differentiated in the basal differentiation medium supplemented with […] rosiglitazone and 1 nM T3 for 4-5 days.
Total RNA was isolated from tissue or cell culture using TRIzol. Total RNA (500 ng) from tissues or cell culture was used in 25 μL reverse transcription reactions (Maxima; Life technologies) and diluted into 250 μL. Diluted cDNA (2 μL) was used in quantitative PCR reactions (SsoAdvanced™ Universal SYBR Green mix; Bio-Rad) on a BioRad CFX384™ Real-Time PCR Detection System. Cq-values were determined and expression values were calculated by BioRad CFX Manager™ Software. Relative mRNA expression values were normalized to inner reference genes Rps18 and Tbp of each biological sample. For mitochondrial copy number qPCR, mitochondrial Cox2 gene was amplified and normalized to genomic β-globin gene.
In the above lentivirus-based primary/secondary screenings, sgRNA-mediated genome editing and consequent gene KO could occur either in proliferative adipose progenitor cells or fully-differentiated adipocytes. As such, Brd9 may function as a beige lineage repressor by either repressing the beige adipocyte lineage differentiation or the white-to-beige adipocyte conversion. To distinguish the above possibilities, white adipocytes were differentiated from white adipose progenitor cells under the basal differentiation condition and the differentiated white adipocytes were treated with BI-7273 for 48 hours. […] Therefore, BI-7273 likely induces the beige lineage determination and differentiation of white adipose progenitor cells by inhibiting BRD9.

[5] = system: type 2 diabetic DIO mice; assay: Blood glucose, HbA1c, HOMA-IR, IPGTT, IPITT in DIO mice after oral BI-7273; type: in vivo, mouse
Description: Blood samples were taken from the tail vein and measured on HbA1c cartridges (5035C) loaded in a DCA Vantage Analyzer (Siemens).
(§1) IPGTT was performed after 16 hrs fasting. Glucose (2 g kg^−1 body weight) was injected intraperitoneally. Blood samples were taken from the tail vein. Glucose levels were measured at 0, 15, 30, 60, and 120 min after glucose injection using a glucometer (OneTouch, Ultra 2).
as §1, with “IPITT” for “IPGTT”, “6” for “16”, “Insulin (0.75 U” for “Glucose (2 g”, “weight, Roche Risch-Rotkreuz, Switzerland)” for “weight)”, “insulin” for “glucose”
Next, whether BI-7273 oral administration is sufficient to protect DIO models from type 2 diabetes was investigated. Before gavage (3 months after HFD feeding), DIO models developed diabetes as evidenced by 1) averaged random non-fasting blood glucose level at ˜250 mg/dL; and 2) averaged glycated hemoglobin (HbA1c) level at 6.5% (FIG. 6A, B). […] Upon HFD feeding, C57BL/6 mice are predisposed to type 2 diabetes, which is characterized by insulin resistance (averaged HOMA-IR index=95; FIG. 6C)(32). BI-7273 oral administration lowered HOMA-IR index (to ˜55%; FIG. 6C), indicating much improved β-cell function and insulin resistance.

[6] = system: DIO mice; assay: Indirect calorimetry of DIO mice after oral BI-7273; type: in vivo, mouse
Description: Indirect calorimetry was performed on a Columbus Instruments CLAMS system equipped with 8 metabolic cages. Oxygen consumption (VO2; ml/min) and carbon dioxide production (VCO2; ml/min) were measured at 22° C. with 12-hr:12-hr dark:light cycles. Total energy expenditure was estimated using the equation published before […]). Data were normalized to the body weight of each animal. Physical activity is measured by counting infrared beam breaking events.
Next, whether oral administration of BI-7273 is sufficient to increase the whole-body energy expenditure was investigated. DIO models were gavaged with BI-7273 or control 0.5% Natrosol for 14 days as described above and later housed individually in metabolic cages for 10 days. […] HFD-fed control DIO models had very low respiratory exchange ratios (RER; ˜0.6 in light cycles and 0.72 in dark cycles), which is consistent with their high lipid utilization and insulin resistance (IR) states.

[7] = 14-day oral administration, 1 month HFD refeeding
[8] = light and dark cycles, after 14-day gavage

COc1cc(-c2cn(C)c(=O)c3cnccc23)cc(OC)c1CN(C)C [BI-7273, 4-[4-[(dimethylamino)methyl]-3,5-dimethoxyphenyl]-2-methyl-2,7-naphthyridin-1-one]
bioavailability [1]: good and high
antitumor activity [2]: antitumor activity
reduced fat mass ([3]; 55 grams×21%, end of study): 11.6 grams
adiposity (fat mass percent) ([3]; BIS, end of study, 1.5 months after the start of gavage, ~47% before gavage): ~26%
treadmill performance (time until exhaustion) ([3]; after treatment): improved
food intake ([3]; before and after gavage, vs control group): comparable
body weight lost ([3]; end of study, 1.5 months after the start of gavage, HFD refeeding): ~15.5%
body weight loss ([3]; end of the study): ~9 grams
lean mass ([3]; inferred from fat mass vs body weight loss): increase
Ucp1 mRNA increase [4]: 1.6 fold
adipogenic markers (Pparg2, Leptin, Adiponectin, Fabp4) [4]: not affected
mitochondrial markers (Ndufb2, Sdha, Uqcrc2, Cox8b, Atp5a1) increase [4]: 1.7-2.0 fold
other beige lineage markers (Pgc1α, Cedia, Dio2, Elovl3) [4]: did not raise
HbA1c level ([5]; 100 mg/kg/day oral for 14 days, 6.5% before gavage): ~5%
random non-fasting blood glucose level ([5]; 100 mg/kg/day oral for 14 days, ~250 mg/dL before gavage): 130 mg/dL
glucose tolerance (IPGTT) [5, 7]: drastically improved
insulin sensitivity (IPITT) [5, 7]: drastically improved
HOMA-IR index ([5]; oral administration, averaged index 95 upon HFD feeding): ~55%
respiratory exchange ratio (RER) ([6]; light and dark cycles): markedly increased
oxygen consumption (VO2) [6, 8]: drastically increased
total energy expenditure (E.E.) [6, 8]: drastically increased
physical activity ([6]; vs control, light or dark cycles): comparable
